For assay [1], the system named is AGS (Gastric Carcinoma). As to the kind of experiment: Bliss excess, mean over the matrix (fraction); higher = more synergy. In short, it runs like this: (§1)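 Bliss excess equals the observed combination effect minus the expected value EA + EB − EA·EB, where EA and EB are the effects of each agent alone. Combination Emax is the second-highest inhibition within the matrix. Inhibition was scaled from CellTiter-Glo 2.0 luminescence, with 0 set by vehicle wells and 1 by blank wells, after 72 hours of two-drug dosing of cells plated in 1536-well plates.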

Assay [2] relates to HT-1376 (Bladder Carcinoma). The assay is described as above. In short, it runs like this: as §1
Assay [3] deals with Calu-3 (Lung Adenocarcinoma). The assay is described as above. In short, it runs like this: as §1
For assay [4], the system named is ME-1 (Acute Myeloid Leukemia). Described as above. In short, it runs like this: as §1
Assay [5] deals with SK-ES-1 (Ewing's Sarcoma). The assay is described as above. In short, it runs like this: as §1
Assay [6] concerns HCC1806 (Breast Carcinoma). Described as above. In short, it runs like this: as §1
In assay [7] the test system is KURAMOCHI (Ovarian Carcinoma). The assay is described as above. In short, it runs like this:
as §1

Assay [8] relates to LNCaP-Clone-FGC (Prostate Carcinoma). The description is as above. In short, it runs like this: as §1
In assay [9] the test system is LU-135 (Small Cell Lung Carcinoma). The assay is described as above. In short, it runs like this:
as §1

Assay [10] has as its system CAL-148 (Breast Carcinoma). The assay is described as above. In short, it runs like this:
as §1

Assay [11] deals with ES4 (Ewing's Sarcoma). Described as above. The method, boiled down: as §1
Assay [12] concerns DoTc2-4510 (Cervical Carcinoma). The assay is described as above. In short, it runs like this: as §1
Assay [13] has as its system B-CPAP (Thyroid Gland Carcinoma). Described as above. In short, it runs like this:
as §1

The test system of assay [14] is NCI-H2085 (Non-Small Cell Lung Carcinoma). The description is as above. In short, it runs like this: as §1
The test system of assay [15] is KP-1N (Pancreatic Carcinoma). Briefly: combination Emax (second highest fraction inhibited in the dose matrix, 72 h); higher = more inhibition; extreme values may be limits of the assay. In short, it runs like this:
as §1

Assay [16] relates to Hs-578-T (Breast Carcinoma). The description is as above. In short, it runs like this:
as §1

Assay [17] deals with 42-MG-BA (Glioblastoma). Described as above. In short, it runs like this:
as §1

The subject of assay [18] is TE-15 (Esophageal Squamous Cell Carcinoma). The assay is described as above. In short, it runs like this: as §1
For assay [19], the system named is T98G (Glioblastoma). The description is as above. In short, it runs like this: as §1
Assay [20] has as its system EC-GI-10 (Esophageal Squamous Cell Carcinoma). Described as above. The method, boiled down:
as §1

This note sets out measurements from the supplement of paper PMC11061612.

`CCN(CCO)CCCOc1ccc2c(Nc3cc(CC(=O)Nc4cccc(F)c4)[nH]n3)ncnc2c1` [AZD2811] + C=CCn1c(=O)c2cnc(Nc3ccc(N4CCN(C)CC4)cc3)nc2n1-c1cccc(C(C)(C)O)n1 [AZD1775] (first compound max 1 µM, partner max 1 µM): the Bliss excess in assay [1] is 0.0156; in assay [2], -0.0947; in assay [3], -0.0306; in assay [4] it was -0.0812; in assay [5], 0.028; in [6], 0.0012. Moreover, the Bliss excess in [7] was -0.0602; in [8] it was 0.0001; in [9], -0.0346; in [10], -0.0165; in assay [11], -0.0024; in [12], -0.0323. Besides, the Bliss excess in assay [13] is -0.0363; in assay [14], 0.0061. The “combination Emax” value in assay [15] was 0.401; in assay [16], 0.775; in [17], 0.522; in [18], 0.496; in [19], 0.608; in [20], 0.849.
In the case of `Cc1c2c(nn1C)CSCc1cc(n(C)n1)CSc1cc(c3ccccc3c1)OCCCc1c(C(=O)O)n(C)c3c-2c(Cl)ccc13` [AZD5991] + Cn1cnc2c(F)c(Nc3ccc(Br)cc3Cl)c(C(=O)NOCCO)cc21 [Selumetinib] (first compound max 1 µM, 7x7, partner max 3 µM), the Bliss excess in assay [1] was 0.186; in assay [2], 0.0144; in assay [3] it was -0.015; in assay [4], 0.162; in assay [5], -0.0186; in assay [6], 0.0254. In addition, the Bliss excess in assay [7] was 0.031; in [8] it was -0.0301; in assay [9], -0.0003; in [10], 0.0184; in [11], -0.0173; in assay [12] it was 0.0343. Also, the Bliss excess in assay [13] is -0.0219; in [14] it was -0.0344. Also, the “combination Emax” value in [15] came out at 0.189; in assay [16], 0.54; in [17], 0.988; in assay [18], 0.317; in assay [19] it was 0.249; in [20] it was 0.758.
For the molecule `Cc1c2c(nn1C)CSCc1cc(n(C)n1)CSc1cc(c3ccccc3c1)OCCCc1c(C(=O)O)n(C)c3c-2c(Cl)ccc13` [AZD5991] + CCN(CCO)CCCOc1ccc2c(Nc3cc(CC(=O)Nc4cccc(F)c4)[nH]n3)ncnc2c1 [AZD2811] (first compound max 1 µM, 7x7, partner max 1 µM), the Bliss excess in assay [1] is 0.0374; in [2], -0.0077; in assay [3] it was -0.0024; in assay [4], 0.0139; in [5], 0.0028; in assay [6], 0.0297. The Bliss excess in [7] was -0.0046; in assay [8] it was 0.0567; in [9] it was 0.0109; in assay [10], 0.0597; in assay [11] it was 0.0003; in assay [12] it was 0.0509. Moreover, the figures for the Bliss excess in assay [13] and in assay [14] were 0.0082 and -0.0575, respectively. Further, the “combination Emax” value in assay [15] stood at 0.234; in [16] it was 0.81; in assay [17] it was 1; in assay [18], 0.826; in assay [19], 0.585; in assay [20], 0.891.
As to `CC1(C)CCC(CN2CCN(c3ccc(C(=O)NS(=O)(=O)c4ccc(NCC5CCOCC5)c([N+](=O)[O-])c4)c(Oc4cnc5[nH]ccc5c4)c3)CC2)=C(c2ccc(Cl)cc2)C1` [Venetoclax] + COc1cc(Nc2ncc3c(n2)-c2ccc(Cl)cc2C(c2c(F)cccc2OC)=NC3)ccc1C(=O)O [Alisertib] (first compound max 1 µM, 7x7, partner max 10 µM), the Bliss excess in assay [1] is 0.0353; in assay [2] it was -0.0812; in [3], -0.0228; in assay [4], 0.0669; in assay [5], 0.097; in [6], 0.0042. Moreover, the Bliss excess in assay [7] was -0.0992; in [8], 0.0008; in assay [9] it was -0.0236; in assay [10], -0.0175; in assay [11], -0.0349; in [12], -0.0367. In addition, the Bliss excess was -0.0128 in [13] and 0.0491 in assay [14]. The “combination Emax” value in assay [15] was determined as 0.357; in [16], 0.851; in assay [17], 0.59; in assay [18] it was 0.686; in assay [19] it was 0.556; in assay [20] it was 0.554.
For the molecule `C=CCn1c(=O)c2cnc(Nc3ccc(N4CCN(C)CC4)cc3)nc2n1-c1cccc(C(C)(C)O)n1` [AZD1775] + O=C(c1cc(Cc2n[nH]c(=O)c3ccccc23)ccc1F)N1CCN(C(=O)C2CC2)CC1 [Olaparib] (first compound max 1 µM, partner max 10 µM), the Bliss excess in assay [1] is 0.0116; in [2], -0.0509; in [3], -0.0243; in assay [4], -0.0873; in assay [5] it was 0.0511; in assay [6], -0.0294. Besides, the Bliss excess in [7] is -0.0358; in [8], -0.0242; in [9], -0.0249; in [10] it was 0.0068; in assay [11], 0.0199; in assay [12], -0.0634. The Bliss excess in [13] is 0.0393; in assay [14], -0.0353. For the same molecule, the “combination Emax” value in [15] was determined as 0.359; in [16], 0.839; in [17] it was 0.278; in assay [18], 0.382; in assay [19] it was 0.675; in assay [20], 0.831.
In the case of `Cc1c2c(nn1C)CSCc1cc(n(C)n1)CSc1cc(c3ccccc3c1)OCCCc1c(C(=O)O)n(C)c3c-2c(Cl)ccc13` [AZD5991] + C1CN(CCC1(C(=O)N[C@@H](CCO)C2=CC=C(C=C2)Cl)N)C3=NC=NC4=C3C=CN4 [Capivasertib] (first compound max 1 µM, 7x7, partner max 3 µM), the Bliss excess was 0.0013 in [1]; -0.01 in assay [2]; 0.0134 in assay [3]; 0.0415 in assay [4]; 0.0217 in assay [5]; 0.0085 in assay [6]. Besides, the Bliss excess in assay [7] was 0.0205; in assay [8], -0.043; in assay [9], -0.0112; in assay [10] it was 0.0486; in [11] it was 0.0162; in assay [12], 0.0544. Further, the figures for the Bliss excess in [13] and in assay [14] were -0.0249 and -0.0334, respectively. Also, the “combination Emax” value in assay [15] is 0.249; in [16], 0.747; in [17], 1; in assay [18] it was 0.36; in assay [19] it was 0.3; in assay [20] it was 0.775.
With `CC(=O)Nc1cccc(-n2c(=O)n(C3CC3)c(=O)c3c(Nc4ccc(I)cc4F)n(C)c(=O)c(C)c32)c1` [Trametinib] + Cc1nc(-c2cn3c(n2)-c2ccc(-c4cnn(C(C)(C)C(N)=O)c4)cc2OCC3)n(C(C)C)n1 [Taselisib] (first compound max 1 µM, 7x7, partner max 10 µM), the Bliss excess in assay [1] came to 0.122; in assay [2] it was 0.0546; in [3] it was 0.162; in [4] it was 0.118; in assay [5], 0.0641; in assay [6], 0.257. Moreover, the Bliss excess in assay [7] was 0.115; in assay [8], -0.0056; in [9], 0.113; in assay [10], 0.0554; in [11] it was 0.0891; in assay [12], 0.143. In addition, the Bliss excess is 0.141 in assay [13] and 0.0062 in assay [14]. For the same molecule, the “combination Emax” value in assay [15] is 0.644; in assay [16], 0.919; in assay [17] it was 0.971; in assay [18], 0.664; in assay [19] it was 0.855; in assay [20], 1.
